Where two headings read alike, the source gives them in different places. Positions of bridges follow the written chain, without caps; N, C: chain ends. Non-standard residues stand in square brackets, D forms with d. Residues, ends and D or L forms follow the SMILES beside them. 2Nal = N[C@@H](Cc1ccc2ccccc2c1)C(=O)O; R8 = C=CCCCCCC[C@@](C)(N)C(=O)O; S5 = C=CCCC[C@](C)(N)C(=O)O; Ahx = NCCCCCC(=O)O
Tests used:
human Mdm2 1–125 = target: T1, human Mdm2 1–125 (Homo sapiens, UniProt Q00987); assay: Mdm2 binding by competitive fluorescence anisotropy assay (FP binding); conditions: read-out: FP binding assay KD
T1 construct: GST (N); His6 (internal); TEV cleavage site (ENLYFQG) (internal); made in house; host or cells: BL21 (DE3) Rosetta T1R Escherichia coli
T1 sequence (Q00987 with tags, fused parts or gaps): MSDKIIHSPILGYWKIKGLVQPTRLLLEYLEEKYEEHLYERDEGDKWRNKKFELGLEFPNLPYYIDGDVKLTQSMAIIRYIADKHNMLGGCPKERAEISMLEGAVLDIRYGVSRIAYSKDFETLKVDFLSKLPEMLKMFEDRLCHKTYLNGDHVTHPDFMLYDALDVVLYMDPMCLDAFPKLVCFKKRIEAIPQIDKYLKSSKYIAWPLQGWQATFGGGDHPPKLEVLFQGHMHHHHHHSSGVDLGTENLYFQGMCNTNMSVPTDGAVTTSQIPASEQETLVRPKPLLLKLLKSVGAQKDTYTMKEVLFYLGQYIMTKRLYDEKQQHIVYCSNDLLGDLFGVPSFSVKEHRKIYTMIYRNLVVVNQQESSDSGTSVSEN
Text: The TEV (tobacco etch virus) cleavage site was changed from ENLYFQS to ENLYFQG to give a fusion protein with the following sequence:
[P] is the protein concentration (Mdm2), [L] is the labeled peptide concentration, r is the anisotropy measured, r0 is the anisotropy of the free peptide, rb is the anisotropy of the Mdm2–FAM-labeled peptide complex, Kd is the dissociation constant, [L]t is the total FAM labeled peptide concentration, and [P]t is the total Mdm2 concentration. […] This value was then used to determine apparent Kd values of the respective competing ligands in subsequent competition assays in fluorescence anisotropy experiments.
The competing molecules were then titrated against the complex of the FAM-labeled peptide and protein. Apparent Kd values were determined by fitting the experimental data to equations shown below:2 r=ro+(rb−ro)×2(d^2−3e)cos(θ/3)−9/3Kd1+2(d^2−3e)cos(θ/3)−d 3 d=Kd1+Kd2+[L]st+[L]t−Pt 4 e=Lt−PtKd1+Lst+PtKd2+Kd1Kd2 5 f=−Kd1Kd2[P]t 6 θ=arcos−2d^3+9de−27f/2(d^2−3e)^3
[L]st and [L]t denote labeled ligand and total unlabeled ligand input concentrations, respectively. Kd2 is the dissociation constant of the interaction between the unlabeled ligand and the protein. In all competition experiments, it is assumed that [P]t > [L]st, otherwise considerable amounts of free labeled ligand would always be present and would interfere with measurements. […] The FAM-labeled peptide was dissolved in dimethyl sulfoxide (DMSO) at 1 mM and diluted into experimental buffer. Readings were carried out with an Envision Multilabel Reader (PerkinElmer). […] Curve-fitting was carried out using Prism 4.0 (GraphPad). […] Negative control titrations of the ligands under investigation were also carried out with the fluorescently labeled peptide (in the absence of Mdm2) to ensure no interactions were occurring between the ligands and the FAM-labeled peptide. […] Measurements were taken a minimum of three times (biological replicates) and values are reported as geometric means of the replicates.

[1] = test system: p53 responsive β-lactamase reporter in HCT116 cells; assay: cells; format: cell-based
In short: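 HCT116 cells stably carrying a p53-responsive β-lactamase reporter, seeded at 8000 cells/well, with 0.5% DMSO final. Reporter activity read by ToxBLAzer Dual Screen. Values are geometric means of at least three biological replicates.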

[2] = Lactate dehydrogenase (LDH) release assay; format: cell-based; conditions: LDH: Cytotoxicity assay EC50
In short: (§1)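 A p53 β-lactamase reporter HCT116 line, 8000 cells per well, is exposed to test compounds at 0.5% final DMSO and scored for LDH leakage.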

HCT116 cells = assay: Lactate dehydrogenase (LDH) release assay; format: cell-based
In short: as §1

[3] = test system: Jump-In T-REx CHO-K1 BLA cells; assay: cells; format: cell-based; conditions: for EC50: read-out: TETCHO: Counterscreen EC50
[4] = Solubility assay (kinetic solubility, PBS pH 7); format: physicochemical; conditions: pH 7, PBS
In short: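 Quantitation uses an external standard at 100 µM, prepared from 10 mM stock in acetonitrile:methanol:DMSO (10:80:10). Solubility (µM) = (peak area of sample ÷ peak area of standard) × standard concentration.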

EPSA = format: physicochemical
[5] = Experimental LogD (partition coefficient)
[6] = 0% FBS 4Hr, read-out: p53 reporter assay EC50

Row | Structure (SMILES) | Kd (human Mdm2 1–125) [µM] | EC50 [1, 6] [µM] | EC50 [2] [µM] | LDH: Cytotoxicity assay % Effect (HCT116 cells) [%] | TETCHO: Counterscreen % Effect ([3]; 0% FBS 4Hr) [%] | EC50 ([3]; 0% FBS 4Hr) [µM] | p53 reporter assay: % Effect ([1]; 0% FBS 4Hr) [%] | EC50 ([1]; 0% FBS 4Hr, read-out: p53 reporter assay: EC50) [µM] | p53 reporter assay: % Effect ([1]; 0% FBS 16Hr) [%] | EC50 ([1]; 0% FBS 16Hr, read-out: p53 reporter assay: EC50) [µM] | TETCHO: Counterscreen % Effect ([3]; 0% FBS 16Hr) [%] | EC50 ([3]; 0% FBS 16Hr) [µM] | Solubility [4] | EPSA (EPSA) | Partition Coeff LogD [5] | EC50 ([1]; 0% FBS 16Hr, read-out: p53 reporter assay EC50) [µM]
1 | CC(C)C[C@@H]1NC(=O)[C@H](C)NC(=O)[C@H](Cc2c[nH]c3ccccc23)NC(=O)[C@H](Cc2ccc(O)cc2)NC(=O)[C@H](CCC(=O)O)NC(=O)[C@](C)(NC(=O)[C@H](Cc2ccccc2)NC(=O)[C@H](CO)NC(=O)[C@@H](NC(=O)[C@H](CO)NC(=O)CNC(=O)[C@@H](N)CO)[C@@H](C)O)CCCCCCC=CCCC[C@@](C)(C(N)=O)NC(=O)[C@H](CC(C)C)NC1=O [MP-132] | 0.0459 | 39.6 | > 50 | 1.056 | 9.469 | > 50 | – | – | – | – | – | – | – | – | – | –
2 | CC(=O)N[C@H](C(=O)N[C@@H](CO)C(=O)N[C@@H](Cc1ccccc1)C(=O)N[C@]1(C)CCCCCCC=CCCC[C@@](C)(C(N)=O)NC(=O)[C@H](CC(C)C)NC(=O)[C@H](CC(C)C)NC(=O)[C@H](C)NC(=O)[C@H](Cc2c[nH]c3ccccc23)NC(=O)[C@H](Cc2ccc(O)cc2)NC(=O)[C@H](Cc2c[nH]cn2)NC1=O)[C@@H](C)O [MP-138] (Ac-TSF[R8]HYWALL[S5]-NH2; staple 4-11) | 0.0879 | 4.9 | > 50 | 0.2053 | 24.03 | > 50 | – | – | – | – | – | – | – | – | – | –
3 | CC(=O)N[C@H](C(=O)N[C@@H](CO)C(=O)N[C@@H](Cc1ccccc1)C(=O)N[C@]1(C)CCCCCCC=CCCC[C@@](C)(C(=O)N[C@@H](CCC(=O)O)C(N)=O)NC(=O)[C@H](CC(C)C)NC(=O)[C@H](CC(C)C)NC(=O)[C@H](C)NC(=O)[C@H](Cc2c[nH]c3ccccc23)NC(=O)[C@H](Cc2ccc(O)cc2)NC(=O)[C@H](CCC(=O)O)NC1=O)[C@@H](C)O [MP-139] | < 0.001 | 6.25 | 38.8 | 20.87 | 1.538 | > 50 | – | – | – | – | – | – | – | – | – | –
4 | CC(=O)N[C@H](C(=O)N[C@@H](CO)C(=O)N[C@@H](Cc1ccccc1)C(=O)N[C@]1(C)CCCCCCC=CCCC[C@@](C)(C(=O)N[C@@H](CO)C(=O)N[C@@H](C)C(=O)N[C@@H](C)C(=O)N[C@@H](CCC(=O)O)C(N)=O)NC(=O)[C@H](CC(C)C)NC(=O)[C@H](CC(C)C)NC(=O)[C@H](C)NC(=O)[C@H](Cc2c[nH]c3ccccc23)NC(=O)[C@H](Cc2ccc(O)cc2)NC(=O)[C@H](CCC(=O)O)NC1=O)[C@@H](C)O [MP-141] | < 0.001 | 5.36 | > 50 | 8.71 | 2.385 | > 50 | – | – | – | – | – | – | – | – | – | –
5 | CC(=O)N[C@@H](CCCCN)C(=O)N[C@@H](CCCCN)C(=O)N[C@H](C(=O)N[C@@H](CO)C(=O)N[C@@H](Cc1ccccc1)C(=O)N[C@]1(C)CCCCCCC=CCCC[C@@](C)(C(N)=O)NC(=O)[C@H](CC(C)C)NC(=O)[C@H](CC(C)C)NC(=O)[C@H](C)NC(=O)[C@H](Cc2c[nH]c3ccccc23)NC(=O)[C@H](Cc2ccc(O)cc2)NC(=O)[C@H](CCC(=O)O)NC1=O)[C@@H](C)O [MP-142] | 0.0422 | 15.2 | 46.7 | 72.79 | 22.09 | 20.2 | – | – | – | – | – | – | – | – | – | –
6 | CC(=O)N[C@H](C(=O)N[C@@H](CO)C(=O)N[C@@H](Cc1ccc2ccccc2c1)C(=O)N[C@]1(C)CCCCCCC=CCCC[C@@](C)(C(=O)N[C@@H](CO)C(=O)N[C@@H](C)C(=O)N[C@@H](C)C(=O)N[C@@H](CCC(=O)O)C(N)=O)NC(=O)[C@H](CC(C)C)NC(=O)[C@H](CC(C)C)NC(=O)[C@H](C)NC(=O)[C@H](Cc2c[nH]c3ccccc23)NC(=O)[C@H](Cc2ccc(O)cc2)NC(=O)[C@H](CCC(=O)O)NC1=O)[C@@H](C)O [MP-144] (Ac-TS[2Nal][R8]EYWALL[S5]SAAE-NH2; staple 4-11) | 46.7 | 5.01 | 15.6 | 83.26 | -3.58 | > 50 | – | – | – | – | – | – | – | – | – | –
7 | CC(=O)N[C@H](C(=O)N[C@@H](CO)C(=O)N[C@@H](Cc1ccc2ccccc2c1)C(=O)N[C@]1(C)CCCCCCC=CCCC[C@@](C)(C(N)=O)NC(=O)[C@H](CC(C)C)NC(=O)[C@H](CC(C)C)NC(=O)[C@H](C)NC(=O)[C@H](Cc2c[nH]c3ccccc23)NC(=O)[C@H](Cc2ccc(O)cc2)NC(=O)[C@H](CCC(=O)O)NC1=O)[C@@H](C)O [MP-145] (Ac-TS[2Nal][R8]EYWALL[S5]-NH2; staple 4-11) | 4.33 | 23.8 | 36.5 | 48.85 | 30.02 | > 50 | – | – | – | – | – | – | – | – | – | –
8 | CC(=O)N[C@H](C(=O)N[C@@H](CO)C(=O)N[C@@H](Cc1ccc2ccccc2c1)C(=O)N[C@]1(C)CCCCCCC=CCCC[C@@](C)(C(=O)N[C@@H](CCC(=O)O)C(N)=O)NC(=O)[C@H](CC(C)C)NC(=O)[C@H](CC(C)C)NC(=O)[C@H](C)NC(=O)[C@H](Cc2c[nH]c3ccccc23)NC(=O)[C@H](Cc2ccc(O)cc2)NC(=O)[C@H](CCC(=O)O)NC1=O)[C@@H](C)O [MP-146] (Ac-TS[2Nal][R8]EYWALL[S5]E-NH2; staple 4-11) | 0.499 | 43.3 | > 50 | 16.49 | 1.205 | > 50 | – | – | – | – | – | – | – | – | – | –
9 | CC(=O)N[C@H](C(=O)N[C@@H](CO)C(=O)N[C@@H](Cc1ccccc1)C(=O)NC(C)(C)C(=O)N[C@@H](CCC(=O)O)C(=O)N[C@@H](Cc1ccc(O)cc1)C(=O)N[C@@H](Cc1c[nH]c2ccccc12)C(=O)N[C@@H](C)C(=O)N[C@@H](CC(C)C)C(=O)N[C@@H](CC(C)C)C(=O)NC(C)(C)C(N)=O)[C@@H](C)O [MP-153] | 0.133 | 34.2 | > 50 | 0.7534 | 16.18 | > 50 | – | – | – | – | – | – | – | – | – | –
10 | CC(=O)N[C@@H](CC(C)C)C(=O)N[C@H](C(=O)N[C@@H](Cc1ccccc1)C(=O)N[C@]1(C)CCCCCCC=CCCC[C@@](C)(C(=O)N[C@@H](CO)C(=O)N[C@@H](C)C(=O)N[C@@H](C)C(N)=O)NC(=O)[C@H](CC(C)C)NC(=O)[C@H](CCC(N)=O)NC(=O)[C@H](C)NC(=O)[C@H](Cc2c[nH]c3ccccc23)NC(=O)[C@H](Cc2ccc(O)cc2)NC(=O)[C@H](CCC(=O)O)NC1=O)[C@@H](C)O [MP-211] | 0.0678 | – | – | – | 40.04 | 48.5 | 96.16 | 0.731 | 100.4 | 1.48 | 114.5 | 25.2 | 177 | 201 | 2.82 | –
11 | CC(=O)N[C@@H](CCCCN)C(=O)N[C@@H](CCCCN)C(=O)N[C@@H](CCCCN)C(=O)NCCCCCC(=O)N[C@H](C(=O)N[C@@H](CO)C(=O)N[C@@H](Cc1ccccc1)C(=O)N[C@]1(C)CCCCCCC=CCCC[C@@](C)(C(=O)N[C@@H](CCC(=O)O)C(=O)N[C@@H](CC(N)=O)C(=O)N[C@@H](Cc2ccccc2)C(N)=O)NC(=O)[C@H](CC(C)C)NC(=O)[C@H](CC(C)C)NC(=O)[C@H](C)NC(=O)[C@H](Cc2c[nH]c3ccccc23)NC(=O)[C@H](Cc2ccc(O)cc2)NC(=O)[C@H](CCC(=O)O)NC1=O)[C@@H](C)O [MP-5364] (Ac-KKK[Ahx]TSF[R8]EYWALL[S5]ENF-NH2; staple 8-15) | 0.0391 | 2.55 | > 50 | – | 62.33 | 31.9 | – | – | – | – | 3.12 | – | – | – | – | 4.96
